US20090018134A1, “Compounds - 945” (AstraZeneca AB, priority 2007, published 2009)

molecular target: T1, mTOR (Homo sapiens, UniProt P42345); test: In Vitro mTOR Kinase Assay (Echo), Test (a)(ii); type: biochemical; settings: read-out: mTOR Kinase Assay (Echo)
T1 construct: FLAG; made in house
Summary of the method: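 FLAG-tagged human mTOR truncation (residues 1362-2549) expressed in HEK293 cells and FLAG-purified. Compounds dispensed acoustically, reaction 2 h at room temperature, stopped with EDTA. Phosphorylation of biotinylated peptide detected by AlphaScreen with anti-p70 S6K (T389) antibody overnight; IC50 reported.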

T1 sequence (P42345 1362-2549): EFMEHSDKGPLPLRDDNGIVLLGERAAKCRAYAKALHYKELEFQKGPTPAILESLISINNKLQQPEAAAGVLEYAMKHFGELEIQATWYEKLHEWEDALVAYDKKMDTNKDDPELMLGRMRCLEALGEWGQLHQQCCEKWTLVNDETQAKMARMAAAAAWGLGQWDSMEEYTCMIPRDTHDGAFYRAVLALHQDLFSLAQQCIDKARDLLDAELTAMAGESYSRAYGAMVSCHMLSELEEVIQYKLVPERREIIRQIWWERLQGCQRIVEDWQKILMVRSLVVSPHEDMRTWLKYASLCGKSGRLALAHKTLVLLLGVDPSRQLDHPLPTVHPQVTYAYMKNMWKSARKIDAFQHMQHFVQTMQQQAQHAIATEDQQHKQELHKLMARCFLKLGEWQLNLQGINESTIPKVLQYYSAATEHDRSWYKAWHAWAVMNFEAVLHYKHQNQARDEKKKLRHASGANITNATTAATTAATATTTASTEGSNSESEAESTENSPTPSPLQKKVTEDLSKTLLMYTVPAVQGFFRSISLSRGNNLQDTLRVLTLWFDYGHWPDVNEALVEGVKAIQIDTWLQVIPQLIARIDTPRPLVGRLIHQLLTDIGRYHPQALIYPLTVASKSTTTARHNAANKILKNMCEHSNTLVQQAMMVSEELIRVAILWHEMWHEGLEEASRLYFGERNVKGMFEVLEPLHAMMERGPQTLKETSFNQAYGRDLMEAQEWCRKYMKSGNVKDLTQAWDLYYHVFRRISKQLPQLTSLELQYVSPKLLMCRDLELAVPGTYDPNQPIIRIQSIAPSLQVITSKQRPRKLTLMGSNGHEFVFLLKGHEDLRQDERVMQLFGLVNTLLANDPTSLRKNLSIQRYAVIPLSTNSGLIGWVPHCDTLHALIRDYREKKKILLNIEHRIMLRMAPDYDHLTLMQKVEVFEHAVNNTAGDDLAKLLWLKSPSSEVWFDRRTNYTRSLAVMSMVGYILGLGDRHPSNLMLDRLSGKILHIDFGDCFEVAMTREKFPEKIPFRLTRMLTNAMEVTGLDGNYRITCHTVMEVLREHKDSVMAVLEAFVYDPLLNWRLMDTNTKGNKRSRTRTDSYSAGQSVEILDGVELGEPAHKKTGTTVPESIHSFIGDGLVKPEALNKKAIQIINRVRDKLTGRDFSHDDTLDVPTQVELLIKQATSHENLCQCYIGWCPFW

| Structure (SMILES) | IC50 |
| --- | --- |
| CC(CO)NC(=O)Nc1ccc(-c2nc(N3CCOC[C@@H]3C)cc(C3(S(C)(=O)=O)CC3)n2)cc1 (stereo partly drawn) [Example 2n, 3-(1-hydroxypropan-2-yl)-1-[4-[4-[(3S)-3-methylmorpholin-4-yl]-6-(1-methylsulfonylcyclopropyl)pyrimidin-2-yl]phenyl]urea] | 8.44 nM |
| C[C@H]1COCCN1c1cc(C2(S(=O)(=O)c3ccncc3)CC2)nc(-c2ccc(NC(=O)Nc3ccc(C(F)(F)F)cc3)cc2)n1 [Example 6i, 1-[4-[4-[(3S)-3-methylmorpholin-4-yl]-6-(1-pyridin-4-ylsulfonylcyclopropyl)pyrimidin-2-yl]phenyl]-3-[4-(trifluoromethyl)phenyl]urea] | 4.62 nM |

Other lines, results leading:

| IC50 | Structure (SMILES) |
| --- | --- |
| 0.851 nM | COc1ccc(NC(=O)Nc2ccc(-c3nc(N4CCOC[C@@H]4C)cc(C4(S(C)(=O)=O)CC4)n3)cc2)cn1 [Example 2o, 3-(6-methoxypyridin-3-yl)-1-[4-[4-[(3S)-3-methylmorpholin-4-yl]-6-(1-methylsulfonylcyclopropyl)pyrimidin-2-yl]phenyl]urea] |
| 1.36 nM | C[C@H]1COCCN1c1cc(C2(S(=O)(=O)c3ccc(F)cc3)CC2)nc(-c2ccc(NC(=O)Nc3cnn(C)c3)cc2)n1 [Example 8m, 1-[4-[4-[1-(4-fluorophenyl)sulfonylcyclopropyl]-6-[(3S)-3-methylmorpholin-4-yl]pyrimidin-2-yl]phenyl]-3-(1-methylpyrazol-4-yl)urea] |
| 1.35 nM | CCS(=O)(=O)C1(c2cc(N3CCOC[C@@H]3C)nc(-c3ccc(NC(=O)NCCO)cc3)n2)CC1 [Example 11e, 1-[4-[4-(1-ethylsulfonylcyclopropyl)-6-[(3S)-3-methylmorpholin-4-yl]pyrimidin-2-yl]phenyl]-3-(2-hydroxyethyl)urea] |

same assay, conditions: table of enzyme assay Test (a)(ii); read-out: Test (a)(ii) IC50

| Structure (SMILES) | IC50 |
| --- | --- |
| CCNC(=O)Nc1ccc(-c2nc(N3[C@@H](C)COC[C@@H]3C)cc(C3(S(=O)(=O)C4CC4)CC3)n2)cc1 [Example 92d, 1-[4-[4-(1-cyclopropylsulfonylcyclopropyl)-6-[(3S,5S)-3,5-dimethylmorpholin-4-yl]pyrimidin-2-yl]phenyl]-3-ethylurea] | 8.07 nM |
| C[C@H]1COCCN1c1cc(C2(S(=O)(=O)CCCO)CCC2)nc(-c2ccc(NC(=O)NCCCO)cc2)n1 [Example 43l, 3-(3-hydroxypropyl)-1-[4-[4-[1-(3-hydroxypropylsulfonyl)cyclobu-tyl]-6-[(3S)-3-methylmorpholin-4-yl]pyrimidin-2-yl]phenyl]urea] | 23.6 nM |
| CNC(=O)Nc1ccc(-c2nc(N3CCOC[C@@H]3C)cc(C3(S(=O)(=O)c4cn(C)nc4C)CC3)n2)cc1 [Example 55, 1-[4-[4-[1-(1,3-Dimethylpyrazol-4-yl)sulfonylcyclopropyl]-6-[(3S)-3-methylmorpholin-4-yl]pyrimidin-2-yl]phenyl]-3-methylurea] | 2.96 nM |
| C[C@H]1COCCN1c1cc(C2(S(C)(=O)=O)CCNCC2)nc(-c2ccc(NC(=O)Nc3cnn(C)c3)cc2)n1 [Example 20d, 1-[4-[4-[(3S)-3-methylmorpholin-4-yl]-6-(4-methylsulfonylpiperidin-4-yl)pyrimidin-2-yl]phenyl]-3-(1-methylpyrazol-4-yl)urea] | 13.3 nM |
| Cc1csc(S(=O)(=O)C2(c3cc(N4CCOCC4)nc(-c4ccc(NC(=O)NCCO)cc4)n3)CC2)n1 [Example 42a, 3-(2-hydroxyethyl)-1-[4-[4-[1-[(4-methyl-1,3-thiazol-2-yl)sulfonyl]cyclopropyl]-6-morpholin-4-ylpyrimidin-2-yl]phenyl]urea] | 2.61 nM |
| C[C@H]1COCCN1c1cc(C2(S(=O)(=O)CCCO)CCOCC2)nc(-c2ccc(NC(=O)NCCO)cc2)n1 [Example 36cg, 3-(2-hydroxyethyl)-1-[4-[4-[4-(3-hydroxypropylsulfonyl)oxan-4-yl]-6-[(3S)-3-methylmorpholin-4-yl]pyrimidin-2-yl]phenyl]urea] | 136 nM |
| CNC(=O)Nc1ccc(-c2nc(N3CCOC[C@@H]3C)cc(C3(S(=O)(=O)c4cccnc4C(=O)N(C)C)CC3)n2)cc1 [Example 50, N,N-Dimethyl-3-[1-[2-[4-(methylcarbamoylamino)phenyl]-6-[(3S)-3-methylmorpholin-4-yl]pyrimidin-4-yl]cyclopropyl]sulfonylpyridine-2-carboxamide] | 10.4 nM |
| Cc1csc(S(=O)(=O)C2(c3cc(N4CCOCC4)nc(-c4ccc(NC(=O)NC(C)C)cc4)n3)CC2)n1 [Example 42h, 1-[4-[4-[1-[(4-methyl-1,3-thiazol-2-yl)sulfonyl]cyclopropyl]-6-morpholin-4-ylpyrimidin-2-yl]phenyl]-3-propan-2-ylurea] | 4.12 nM |
| C[C@H]1COCCN1c1cc(C2(S(=O)(=O)CCCO)CC2)nc(-c2ccc(NC(=O)NC3CCC3)cc2)n1 [Example 31b, 3-cyclobutyl-1-[4-[4-[1-(3-hydroxypropylsulfonyl)cyclopropyl]-6-[(3S)-3-methylmorpholin-4-yl]pyrimidin-2-yl]phenyl]urea] | 4.97 nM |
| CNC(=O)Nc1ncc(-c2nc(N3CCOC[C@@H]3C)cc(C3(S(=O)(=O)c4ccc(F)cc4)CC3)n2)cn1 [Example 14f, 1-[5-[4-[1-(4-fluorophenyl)sulfonylcyclopro-pyl]-6-[(3S)-3-methylmorpholin-4-yl]pyrimidin-2-yl]pyrimidin-2-yl]-3-methylurea] | 189 nM |
| CNC(=O)Nc1ccc(-c2nc(N3CCOC[C@@H]3C)cc(C3(S(=O)(=O)CCC(C)(C)O)CC3)n2)cc1 [Example 79a, 1-[4-[4-[1-(3-hydroxy-3-methylbutyl)sulfonylcyclopropyl]-6-[(3S)-3-methylmorpholin-4-yl]pyrimidin-2-yl]phenyl]-3-methylurea] | 22.2 nM |

Results, then the compound that gave them:

| IC50 | Structure (SMILES) |
| --- | --- |
| 7.57 nM | Cc1cc(F)ccc1S(=O)(=O)C1(c2cc(N3CCOC[C@@H]3C)nc(-c3ccc(NC(=O)NCCO)cc3)n2)CC1 [Example 82b, 1-[4-[4-[1-(4-fluoro-2-methylphenyl)sulfonylcyclopropyl]-6-[(3S)-3-methylmorpholin-4-yl]pyrimidin-2-yl]phenyl]-3-(2-hydroxyethyl)urea] |
| 0.434 nM | CNC(=O)Nc1ccc(-c2nc(N3CCOC[C@@H]3C)cc(C3(S(=O)(=O)c4ccccn4)CC3)n2)cc1 [Example 28e, 3-methyl-1-[4-[4-[(3S)-3-methylmorpholin-4-yl]-6-(1-pyridin-2-ylsulfonylcyclopropyl)pyrimidin-2-yl]phenyl]urea] |
| 7.75 nM | CCS(=O)(=O)C1(c2cc(N3CCOC[C@@H]3C)nc(-c3ccc(NC(=O)NC)cc3)n2)CCC1 [Example 87c, 1-[4-[4-(1-ethylsulfonylcyclobutyl)-6-[(3S)-3-methylmorpholin-4-yl]pyrimidin-2-yl]phenyl]-3-methylurea] |
| 5.66 nM | C[C@H]1COCCN1c1cc(C2(S(=O)(=O)c3ccccc3Cl)CC2)nc(-c2ccc(NC(=O)NCCF)cc2)n1 [Example 76e, 1-[4-[4-[1-(2-chlorophenyl)sulfonylcyclopropyl]-6-[(3S)-3-methylmorpholin-4-yl]pyrimidin-2-yl]phenyl]-3-(2-fluoroethyl)urea] |
| 1.48 nM | CCNC(=O)Nc1ccc(-c2nc(N3CCOC[C@@H]3C)cc(C3(S(=O)(=O)c4ccc(F)c(F)c4)CC3)n2)cc1 [Example 64h, 3-[4-[4-[1-(3,4-difluorophenyl)sulfonylcyclopro-pyl]-6-[(3S)-3-methylmorpholin-4-yl]pyrimidin-2-yl]phenyl]-1-ethylurea] |
| 2.63 nM | C[C@H]1COCCN1c1cc(C2(S(=O)(=O)c3ccncc3)CC2)nc(-c2ccc(NC(=S)NCCO)cc2)n1 [Example 37ad, 3-(2-hydroxyethyl)-1-[4-[4-[(3S)-3-methylmorpholin-4-yl]-6-(1-pyridin-4-ylsulfonylcyclopropyl)pyrimidin-2-yl]phenyl]thiourea] |
| 6.95 nM | C[C@H]1COCCN1c1cc(C2(S(=O)(=O)c3ccc(F)cc3F)CC2)nc(-c2ccc(NC(=O)NCCF)cc2)n1 [Example 57c, 1-[4-[4-[1-(2,4-difluorophenyl)sulfonylcyclopro-pyl]-6-[(3S)-3-methylmorpholin-4-yl]pyrimidin-2-yl]phenyl]-3-(2-fluoroethyl)urea] |
| 4.3 nM | C[C@H]1COCCN1c1cc(C2(S(=O)(=O)c3ccccc3)CC2)nc(-c2ccc(NC(=O)Nc3ccn(C)n3)cc2)n1 [Example 36dv, 1-[4-[4-[1-(benzenesulfonyl)cyclopropyl]-6-[(3S)-3-methylmorpholin-4-yl]pyrimidin-2-yl]phenyl]-3-(1-methypyrazol-3-yl)urea] |
| 6.88 nM | C[C@H]1COCCN1c1cc(C2(S(=O)(=O)c3ccc(F)cc3)CCC2)nc(-c2ccc(NC(=O)NCCCO)cc2)n1 [Example 65a, 1-[4-[4-[1-(4-fluorophenyl)sulfonylcyclobutyl]-6-[(3S)-3-methylmorpholin-4-yl]pyrimidin-2-yl]phenyl]-3-(3-hydroxypropyl)urea] |
| 4.07 nM | CNC(=O)Nc1ccc(-c2nc(N3CCOC[C@@H]3C)cc(C3(S(=O)(=O)c4ccccc4Cl)CC3)n2)cc1 [Example 76a, 1-[4-[4-[1-(2-chlorophenyl)sulfonylcyclopropyl]-6-[(3S)-3-methylmorpholin-4-yl]pyrimidin-2-yl]phenyl]-3-methylurea] |
| 0.688 nM | C[C@H]1COCCN1c1cc(C2(S(=O)(=O)c3cccc(F)c3)CC2)nc(-c2ccc(NC(=O)NCCF)cc2)n1 [Example 53c, 3-(2-fluoroethyl)-1-[4-[4-[1-(3-fluorophenyl)sulfonylcyclopro-pyl]-6-[(3S)-3-methylmorpholin-4-yl]pyrimidin-2-yl]phenyl]urea] |
| 0.403 nM | COc1ccc(NC(=O)Nc2ccc(-c3nc(N4CCOC[C@@H]4C)cc(C4(S(C)(=O)=O)CC4)n3)cc2)cn1 [Example 2o, 3-(6-methoxypyridin-3-yl)-1-[4-[4-[(3S)-3-methylmorpholin-4-yl]-6-(1-methylsulfonylcyclopropyl)pyrimidin-2-yl]phenyl]urea] |
| 14.6 nM | Cc1nc(S(=O)(=O)C2(c3cc(N4CCOC[C@@H]4C)nc(-c4ccc(NC(=O)NCCF)cc4)n3)CC2)sc1C [Example 80a, 1-[4-[4-[1-[(4,5-dimethyl-1,3-thiazol-2-yl)sulfonyl]cyclopropyl]-6-[(3S)-3-methylmorpholin-4-yl]pyrimidin-2-yl]phenyl]-3-(2-fluoroethyl)urea] |
| 3.02 nM | CCCNC(=O)Nc1ccc(-c2nc(N3CCOC[C@@H]3C)cc(C3(S(=O)(=O)c4ccc(Cl)cc4)CC3)n2)cc1 [Example 27i, 3-[4-[4-[1-(4-chlorophenyl)sulfonylcyclopropyl]-6-[(3S)-3-methylmorpholin-4-yl]pyrimidin-2-yl]phenyl]-1-propylurea] |
| 1.97 nM | CCS(=O)(=O)C1(c2cc(N3CCOC[C@@H]3C)nc(-c3ccc(NC(=O)NCCO)cc3)n2)CC1 [Example 11e, 1-[4-[4-(1-ethylsulfonylcyclopropyl)-6-[(3S)-3-methylmorpholin-4-yl]pyrimidin-2-yl]phenyl]-3-(2-hydroxyethyl)urea] |
